Test results: patent US20070128217A1 (priority 2003, published 2007)

Tests used:
[1] = test system: antibodies in sera from SARS patients (sera 1a, 1b, 2, 6, 37, 62, London, SARS-yellow, SARS-green); assay type: binding, human; parameters: Binding of serum 6 to linear peptides of protein X1 of SARS-CoV Urbani / Binding of serum 37 to linear peptides of protein X1 of SARS-CoV Urbani / Binding of serum 6 to looped/cyclic peptide (PEPSCAN-ELISA) / Binding of serum 37 to looped/cyclic peptide (PEPSCAN-ELISA) / Binding of serum 37 to looped/cyclic peptides of protein X1 of SARS-CoV Urbani / Binding of serum 6 to linear peptides of protein X2 / Binding of serum 37 to linear peptides of protein X2 / Binding of serum 37 to looped/cyclic peptides of protein X2 of SARS-CoV Urbani / Binding of serum 6 to linear peptides of protein M of SARS-CoV Urbani / Binding of serum 37 to linear peptides of protein M of SARS-CoV Urbani / Binding of serum 6 to looped/cyclic peptides of protein M of SARS-CoV Urbani / Binding of serum 37 to looped/cyclic peptides of protein M of SARS-CoV Urbani / Binding of serum 6 to linear peptides of protein X3 of SARS-CoV Urbani / Binding of serum 37 to linear peptides of protein X3 of SARS-CoV Urbani / Binding of serum 37 to looped/cyclic peptides of protein X3 of SARS-CoV Urbani / Binding of serum 6 to linear peptides of protein X4 of SARS-CoV Urbani / Binding of serum 37 to linear peptides of protein X4 of SARS-CoV Urbani / Binding of serum 37 to looped/cyclic peptides of protein X4 of SARS-CoV Urbani / Binding of serum 6 to linear peptides of protein X5 of SARS-CoV Urbani / Binding of serum 37 to linear peptides of protein X5 of SARS-CoV Urbani / Binding of serum 37 to looped/cyclic peptides of protein X5 of SARS-CoV Urbani / Binding of serum 6 to linear peptides of protein N of SARS-CoV Urbani / Binding of serum 37 to linear peptides of protein N of SARS-CoV Urbani / Binding of serum 6 to linear peptide (PEPSCAN-ELISA) / Binding of serum 1a to looped/cyclic peptides of protein N of SARS-CoV Urbani / Binding of serum 1b to looped/cyclic peptides of protein N of SARS-CoV Urbani / Binding of serum 2 to looped/cyclic peptides of protein N of SARS-CoV Urbani / Binding of serum 6 to looped/cyclic peptides of protein N of SARS-CoV Urbani / Binding of serum 37 to looped/cyclic peptides of protein N of SARS-CoV Urbani / Binding of serum 62 to looped/cyclic peptides of protein N of SARS-CoV Urbani / Binding of serum London to looped/cyclic peptides of protein N of SARS-CoV Urbani / Binding of serum SARS-green to looped/cyclic peptides of protein N of SARS-CoV Urbani: unit not given here
[2] = test system: control sera (pooled serum of ten healthy LUMC hospital workers; commercial negative donor pooled serum from the Dutch bloodbank); assay type: binding, human; parameters: Binding of Control serum LUMC to linear peptides / Binding of Control serum Blood-bank to linear peptides / Binding of Control serum LUMC to looped peptides / Binding of Control Serum Blood-Bank to Looped peptides / Binding of Control serum LUMC to linear peptides of the protein M of SARS-CoV Urbani / Binding of Control serum Blood-bank to linear peptides of the protein M of SARS-CoV Urbani / Binding of Control serum LUMC to looped peptides of the protein M of SARS-CoV Urbani / Binding of Control Serum Blood-Bank to Looped peptides of the protein M of SARS-CoV Urbani: unit not given here
[3] = test system: rabbit serum obtained by immunizing a rabbit with the SARS-CoV strain Frankfurt 1; assay type: binding; parameters: Binding of a rabbit serum to linear peptides / Binding of a rabbit serum to looped peptides / Rabbit serum linear peptides / Rabbit serum looped peptides / Binding of a rabbit serum to linear peptides of protein N of SARS-CoV Urbani (Rabbit serum linear peptides) / Binding of a rabbit serum to looped/cyclic peptides of protein N of SARS-CoV Urbani (Rabbit serum looped peptides): unit not given here

## LAVFQSATKIIALNK
[1]
  Binding of serum 1a to linear peptides of protein X1 of SARS-CoV Urbani: 0.7
  Binding of serum 1a to looped/cyclic peptide (PEPSCAN-ELISA): 0.5
  Binding of serum 1b to linear peptides of protein X1 of SARS-CoV Urbani: 0.5
  Binding of serum 1b to looped/cyclic peptide (PEPSCAN-ELISA): 0.4
  Binding of serum 2 to linear peptides of protein X1 of SARS-CoV Urbani: 0.5
  Binding of serum 2 to looped/cyclic peptide (PEPSCAN-ELISA): 0.5
  Binding of serum 6 to linear peptides of protein X1 of SARS-CoV Urbani: 0.6
  Binding of serum 6 to looped/cyclic peptide (PEPSCAN-ELISA): 0.6
  Binding of serum 37 to linear peptides of protein X1 of SARS-CoV Urbani: 0.6
  Binding of serum 37 to looped/cyclic peptide (PEPSCAN-ELISA): 0.5
  Binding of serum 62 to linear peptides of protein X1 of SARS-CoV Urbani: 0.5
  Binding of serum 62 to looped/cyclic peptide (PEPSCAN-ELISA): 0.6
  Binding of serum London to linear peptides of protein X1 of SARS-CoV Urbani: 0.2
  Binding of serum London to looped/cyclic peptide (PEPSCAN-ELISA): 0.7
  Binding of serum SARS-green to linear peptides of protein X1 of SARS-CoV Urbani: 0.3
  Binding of serum SARS-green to looped/cyclic peptide (PEPSCAN-ELISA): 0.3
  Binding of serum SARS-yellow to linear peptides of protein X1 of SARS-CoV Urbani: 0.4
  Binding of serum SARS-yellow to looped/cyclic peptide (PEPSCAN-ELISA): 0.5
[2]
  Binding of Control Serum Blood-Bank to Looped peptides: 0.5
  Binding of Control serum Blood-bank to linear peptides: 0.7
  Binding of Control serum LUMC to linear peptides: 0.6
  Binding of Control serum LUMC to looped peptides: 0.6
[3]
  Binding of a rabbit serum to linear peptides: 0.1
  Binding of a rabbit serum to looped peptides: 0.7

## LCKHKKVSTNLCTHS
[1]
  Recognition of the peptide by sera of SARS-CoV infected individuals, and form (linear, looped/cyclic) in which it is recognized: recognized in linear form
[2]
  Binding of Control Serum Blood-Bank to Looped peptides: 0.3
  Binding of Control serum Blood-bank to linear peptides: 0.8
  Binding of Control serum LUMC to linear peptides: 0.7
  Binding of Control serum LUMC to looped peptides: 0.4
[3]
  Binding of a rabbit serum to linear peptides: 0.3
  Binding of a rabbit serum to looped peptides: 0.3

## LCWKCKSKNPLLYDA
[1]
  Binding of serum 1a to looped/cyclic peptide (PEPSCAN-ELISA): 0.8
  Binding of serum 1b to looped/cyclic peptide (PEPSCAN-ELISA): 0.5
  Binding of serum 2 to looped/cyclic peptide (PEPSCAN-ELISA): 0.7
  Binding of serum 6 to looped/cyclic peptide (PEPSCAN-ELISA): 0.8
  Binding of serum 37 to looped/cyclic peptide (PEPSCAN-ELISA): 0.7
  Binding of serum 62 to looped/cyclic peptide (PEPSCAN-ELISA): 0.8
  Binding of serum London to looped/cyclic peptide (PEPSCAN-ELISA): 0.3
  Binding of serum SARS-green to looped/cyclic peptide (PEPSCAN-ELISA): 0.3
  Binding of serum SARS-yellow to looped/cyclic peptide (PEPSCAN-ELISA): 0.7
  Recognition of the peptide by sera of SARS-CoV infected individuals, and form (linear, looped/cyclic) in which it is recognized: recognized in linear form
[2]
  Binding of Control Serum Blood-Bank to Looped peptides: 0.8
  Binding of Control serum Blood-bank to linear peptides: 0.7
  Binding of Control serum LUMC to linear peptides: 0.7
  Binding of Control serum LUMC to looped peptides: 0.8
[3]
  Binding of a rabbit serum to linear peptides: 0.3
  Binding of a rabbit serum to looped peptides: 0.8

## LDVIISSIVRQLFKP
[1]
  Binding of serum 1a to linear peptides of protein X3 of SARS-CoV Urbani: 0.8
  Binding of serum 1a to looped/cyclic peptides of protein X3 of SARS-CoV Urbani: 0.6
  Binding of serum 1b to linear peptides of protein X3 of SARS-CoV Urbani: 0.3
  Binding of serum 1b to looped/cyclic peptides of protein X3 of SARS-CoV Urbani: 0.3
  Binding of serum 2 to linear peptides of protein X3 of SARS-CoV Urbani: 0.9
  Binding of serum 2 to looped/cyclic peptides of protein X3 of SARS-CoV Urbani: 0.5
  Binding of serum 6 to linear peptides of protein X3 of SARS-CoV Urbani: 0.3
  Binding of serum 6 to looped/cyclic peptides of protein X3 of SARS-CoV Urbani: 0.4
  Binding of serum 37 to linear peptides of protein X3 of SARS-CoV Urbani: 0.7
  Binding of serum 37 to looped/cyclic peptides of protein X3 of SARS-CoV Urbani: 0.5
  Binding of serum 62 to linear peptides of protein X3 of SARS-CoV Urbani: 0.6
  Binding of serum 62 to looped/cyclic peptides of protein X3 of SARS-CoV Urbani: 0.5
  Binding of serum London to linear peptides of protein X3 of SARS-CoV Urbani: 0.5
  Binding of serum London to looped/cyclic peptides of protein X3 of SARS-CoV Urbani: 0.2
  Binding of serum SARS-green to linear peptides of protein X3 of SARS-CoV Urbani: 0.4
  Binding of serum SARS-green to looped/cyclic peptides of protein X3 of SARS-CoV Urbani: 0.2
  Binding of serum SARS-yellow to linear peptides of protein X3 of SARS-CoV Urbani: 0.1
  Binding of serum SARS-yellow to looped/cyclic peptides of protein X3 of SARS-CoV Urbani: 0.3
[2]
  Binding of Control Serum Blood-Bank to Looped peptides of the protein X3 of SARS-CoV Urbani: 0.7
  Binding of Control serum Blood-bank to linear peptides of the protein X3 of SARS-CoV Urbani: 0.6
  Binding of Control serum LUMC to linear peptides of the protein X3 of SARS-CoV Urbani: 0.4
  Binding of Control serum LUMC to looped peptides of the protein X3 of SARS-CoV Urbani: 0.8
[3]
  Rabbit serum linear peptides: 0.2
  Rabbit serum looped peptides: 0.0
